From PubChem BioAssay (NCI)
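Grown in 96-well plates, cells were treated for 48 hours with each compound at five concentrations. Insufficient inhibition: endpoint recorded as highest concentration tested. GI50 marks 50% less growth. TGI: concentration producing complete growth inhibition.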 Where a SMILES comes first, the peptide text is derived from it. The star is where a group is joined. Bn = c1ccc(C*)cc1

What follows are compounds tested on OVCAR-8 ovarian (assay: growth of human tumour cells (NCI), 48 h).

Question: With `COC(=O)C(CC(C)C)NC(=O)C(N)Cc1ccc(OCc2ccccc2)cc1` (configuration not stated) (H-Tyr(Bn)-Leu-OMe; configuration not given here) as the compound, how does the TGI read?
Answer: > 10 µM

Question: Which TGI does the source give for `CC(C)(C)OC(=O)C1C(=O)NC(=O)CC1C(COCc1ccccc1)OCc1ccccc1` (configuration not stated) here?
Answer: > 100 µM

Question: `Cc1c(C#N)c(N)n(C2OCC(O)C(O)C2O)c(=S)c1C#N` (configuration not stated) was tested. Which TGI did it give?
Answer: > 100 µM

Question: Which TGI does the source give for `O=C(CCCN1CCC2(CC1)C(=NC1CCCCC1)NC(=O)N2c1ccccc1)c1ccc(F)cc1` here?
Answer: 68.4 µM

Question: For `CCOC(=O)[C@@H]1ON2O[C@@H](OC3CCCC3(c3ccccc3)c3ccccc3)C[C@H]3OC(=O)[C@@H]1C32` (some centres not stated), which TGI is on record?
Answer: > 100 µM

Question: For `S=C1CC(c2ccccc2)Sc2ccc(Cl)cc2N1` (configuration not stated), which TGI is on record?
Answer: > 100 µM

Question: For `O=c1n(Cc2ccccc2)c(=O)n2c(=O)n(Cc3ccccc3)c(=O)n12`, which TGI is on record?
Answer: > 100 µM

Question: For `CCN(CC)CCNc1ccc2ncn3c4cc(OC)c(OC)c(=O)c4c(O)c1c23`, which TGI is on record?
Answer: 27.9 µM

Question: With `O=C1CS(=O)C23c4cc5ccccc5n4CCC2CCCN13` (configuration not stated) as the compound, how does the TGI read?
Answer: > 100 µM

Question: `CN1COCc2cc3cc4c(cc3nc21)OCCO4` was tested. Which TGI did it give?
Answer: > 100 µM

Question: `Cc1ccc(-c2c(C#N)c(-c3ccc([N+](=O)[O-])cc3)c(C#N)c(=O)n2NS(=O)(=O)c2ccccc2)cc1` was tested. Which TGI did it give?
Answer: > 100 µM

Question: Which TGI does the source give for `COc1ccc2c(c1)CCN=C2c1ccccc1CCCCl` here?
Answer: > 100 µM

Question: With `COc1ccc(-c2csc(NC(=O)CSc3nc(C)c(-c4ccccc4)n3Nc3ccccc3)n2)cc1` as the compound, how does the GI50 read?
Answer: 3.48 µM

Question: What about the TGI of the same compound?
Answer: > 100 µM

Question: How did the TGI turn out when `Clc1ccc(Cl)c(SCCCN2CCNCC2)c1` was run?
Answer: 46 µM

Question: `O/C(=C\c1nc2ccccc2nc1NC12CC3CC(CC(C3)C1)C2)c1ccc(Br)cc1` was tested. Which TGI did it give?
Answer: > 10 µM

Question: How did the GI50 turn out when `CCN1C(=O)N(CC)C2Nn3c(s/c(=C4\C(=O)N(C)c5ccccc54)c3=O)=NC21` (configuration not stated) was run?
Answer: 4.3 µM

Question: And the TGI?
Answer: > 100 µM

Question: Which TGI does the source give for `CCCCC/C(C=O)=C\c1ccccc1` here?
Answer: > 100 µM

Question: `COc1cc([C@@H]2c3cc4c(cc3[C@@H](c3c(O)cc(O)c5c3O[C@H](c3ccc(O)c(O)c3)[C@@H](O)C5)[C@H]3COC(=O)[C@H]23)OCO4)cc(OC)c1O` was tested. Which TGI did it give?
Answer: > 100 µM

Question: `O=C(c1ccccc1)N1C(=S)N=C(Nc2ccccc2)C1=Nc1ccccc1` was tested. Which TGI did it give?
Answer: > 100 µM

Question: How did the TGI turn out when `COc1ccc(N=NC(=Nc2ccc(F)cc2)c2ccc(N(CCC#N)CCC#N)cc2)cc1` was run?
Answer: > 100 µM

Question: With `CSC(SC)=C1C(=O)N(c2ccccc2)N=C1C` as the compound, how does the TGI read?
Answer: > 100 µM

Question: How did the TGI turn out when `O=C(CNCc1ccccc1)Oc1c(Cl)c(Cl)c(Cl)c(Cl)c1Cl` was run?
Answer: 48.8 µM

Question: With `O=C(Nc1ccc(-n2cc(-c3ccncc3)c(-c3ccc(O)c(Cl)c3)n2)cc1)Nc1cccc(Cl)c1Cl` as the compound, how does the GI50 read?
Answer: 6.86 µM

Question: What about the TGI of the same compound?
Answer: > 32.5 µM

Question: How did the TGI turn out when `O=C(O)CC(NC(=O)/C(=C/c1ccccc1O)NC(=O)c1ccccc1)C(=O)O` (configuration not stated) was run?
Answer: > 100 µM

Question: `N#Cc1c(C#N)c(-c2ccccc2)n(-c2ccccc2)c1N` was tested. Which TGI did it give?
Answer: > 100 µM

Question: With `COc1ccccc1N1CCN(CCCNC(=O)c2cc(Cl)c(N)c(Cl)c2)CC1` as the compound, how does the TGI read?
Answer: > 100 µM

Question: How did the TGI turn out when `O=C(O)c1c2c(cc3c1CC1(Cc4ccccc4C1=O)C3)CCC2` (configuration not stated) was run?
Answer: > 100 µM

Question: How did the TGI turn out when `N#CC(=N)c1ncn(-c2ccccc2N)c1N` was run?
Answer: > 100 µM

What follows are compounds tested on SF-295 CNS (assay: growth of human tumour cells (NCI), 48 h).

Question: With `CN(C)P(=O)(Oc1occc1C(O)Cc1ccccc1)N(C)C` (configuration not stated) as the compound, how does the TGI read?
Answer: > 100 µM

Question: How did the TGI turn out when `CC1=CC(=O)CC2(C)CCC(C(C)CC(=O)CC(C)C)CC12` (configuration not stated) was run?
Answer: > 100 µM

Question: `OCC(O)C(O)C(O)/C=N/Nc1nc(O)c(/C=C2\C=Nc3ccccc32)[nH]1` (configuration not stated) was tested. Which TGI did it give?
Answer: > 100 µM

Question: Which TGI does the source give for `COc1cc2c(cc1OC)C13CC[N+]4(C)CC5=CCOC6CC(=O)N2C1C6C5CC34[O-]` (configuration not stated) here?
Answer: > 100 µM

Question: `COC(=O)C(CC(C)C)NC(=O)C(N)Cc1ccc(OCc2ccccc2)cc1` (configuration not stated) (H-Tyr(Bn)-Leu-OMe; configuration not given here) was tested. Which TGI did it give?
Answer: > 10 µM

Question: Which TGI does the source give for `CC(C)(C)OC(=O)C1C(=O)NC(=O)CC1C(COCc1ccccc1)OCc1ccccc1` (configuration not stated) here?
Answer: 43.3 µM

Question: For `Cc1c(C#N)c(N)n(C2OCC(O)C(O)C2O)c(=S)c1C#N` (configuration not stated), which TGI is on record?
Answer: > 100 µM

Question: With `O=C(CCCN1CCC2(CC1)C(=NC1CCCCC1)NC(=O)N2c1ccccc1)c1ccc(F)cc1` as the compound, how does the TGI read?
Answer: 39.2 µM

Question: Which TGI does the source give for `CCOC(=O)[C@@H]1ON2O[C@@H](OC3CCCC3(c3ccccc3)c3ccccc3)C[C@H]3OC(=O)[C@@H]1C32` (some centres not stated) here?
Answer: > 100 µM

Question: How did the TGI turn out when `S=C1CC(c2ccccc2)Sc2ccc(Cl)cc2N1` (configuration not stated) was run?
Answer: 92.6 µM

Question: For `O=c1n(Cc2ccccc2)c(=O)n2c(=O)n(Cc3ccccc3)c(=O)n12`, which TGI is on record?
Answer: > 100 µM

Question: With `CCN(CC)CCNc1ccc2ncn3c4cc(OC)c(OC)c(=O)c4c(O)c1c23` as the compound, how does the TGI read?
Answer: 23.6 µM

Question: For `O=C1CS(=O)C23c4cc5ccccc5n4CCC2CCCN13` (configuration not stated), which TGI is on record?
Answer: > 100 µM

Question: `CN1COCc2cc3cc4c(cc3nc21)OCCO4` was tested. Which TGI did it give?
Answer: > 100 µM

Question: Which TGI does the source give for `Cc1ccc(-c2c(C#N)c(-c3ccc([N+](=O)[O-])cc3)c(C#N)c(=O)n2NS(=O)(=O)c2ccccc2)cc1` here?
Answer: > 100 µM

Question: How did the TGI turn out when `COc1ccc2c(c1)CCN=C2c1ccccc1CCCCl` was run?
Answer: > 100 µM

Question: Which GI50 does the source give for `COc1ccc(-c2csc(NC(=O)CSc3nc(C)c(-c4ccccc4)n3Nc3ccccc3)n2)cc1` here?
Answer: 0.566 µM

Question: What about the TGI of the same compound?
Answer: > 100 µM

Question: Which TGI does the source give for `Clc1ccc(Cl)c(SCCCN2CCNCC2)c1` here?
Answer: 37.1 µM

Question: Which TGI does the source give for `CCOC(=O)C1(C(=O)OCC)CCCN1C(=O)[C@H](CNC(=O)OC(C)(C)C)NC(=O)OCc1ccccc1` here?
Answer: > 100 µM

Question: How did the TGI turn out when `O/C(=C\c1nc2ccccc2nc1NC12CC3CC(CC(C3)C1)C2)c1ccc(Br)cc1` was run?
Answer: > 10 µM

Question: Which GI50 does the source give for `CCN1C(=O)N(CC)C2Nn3c(s/c(=C4\C(=O)N(C)c5ccccc54)c3=O)=NC21` (configuration not stated) here?
Answer: 2.83 µM

Question: What about the TGI of the same compound?
Answer: > 100 µM

Question: Which TGI does the source give for `CCCCC/C(C=O)=C\c1ccccc1` here?
Answer: > 100 µM

Question: With `COc1cc([C@@H]2c3cc4c(cc3[C@@H](c3c(O)cc(O)c5c3O[C@H](c3ccc(O)c(O)c3)[C@@H](O)C5)[C@H]3COC(=O)[C@H]23)OCO4)cc(OC)c1O` as the compound, how does the TGI read?
Answer: > 100 µM

Question: `O=C(c1ccccc1)N1C(=S)N=C(Nc2ccccc2)C1=Nc1ccccc1` was tested. Which TGI did it give?
Answer: > 100 µM

Question: How did the TGI turn out when `COc1ccc(N=NC(=Nc2ccc(F)cc2)c2ccc(N(CCC#N)CCC#N)cc2)cc1` was run?
Answer: > 100 µM

Question: Which TGI does the source give for `CSC(SC)=C1C(=O)N(c2ccccc2)N=C1C` here?
Answer: 99.6 µM

Question: How did the TGI turn out when `O=C(CNCc1ccccc1)Oc1c(Cl)c(Cl)c(Cl)c(Cl)c1Cl` was run?
Answer: 92.9 µM

Question: What does the source list for `O=C(Nc1ccc(-n2cc(-c3ccncc3)c(-c3ccc(O)c(Cl)c3)n2)cc1)Nc1cccc(Cl)c1Cl`?
Answer: GI50: 6.13 µM; TGI: > 32.5 µM

Question: With `O=C(O)CC(NC(=O)/C(=C/c1ccccc1O)NC(=O)c1ccccc1)C(=O)O` (configuration not stated) as the compound, how does the TGI read?
Answer: > 100 µM

Question: Which TGI does the source give for `N#Cc1c(C#N)c(-c2ccccc2)n(-c2ccccc2)c1N` here?
Answer: > 100 µM

Question: `COc1ccccc1N1CCN(CCCNC(=O)c2cc(Cl)c(N)c(Cl)c2)CC1` was tested. Which TGI did it give?
Answer: 34.1 µM

Question: For `O=C(O)c1c2c(cc3c1CC1(Cc4ccccc4C1=O)C3)CCC2` (configuration not stated), which TGI is on record?
Answer: > 100 µM

Question: For `N#CC(=N)c1ncn(-c2ccccc2N)c1N`, which TGI is on record?
Answer: > 100 µM

These compounds were tested on MDA-N (assay: growth of human tumour cells (NCI), 48 h).

Question: For `O=C(O)CSC(NC(=O)C(C(F)(F)F)C(F)(F)F)(C(F)(F)F)C(F)(F)F`, which TGI is on record?
Answer: > 100 µM

Question: `CN(C)P(=O)(Oc1occc1C(O)Cc1ccccc1)N(C)C` (configuration not stated) was tested. Which TGI did it give?
Answer: > 100 µM

Question: `OCC(O)C(O)C(O)/C=N/Nc1nc(O)c(/C=C2\C=Nc3ccccc32)[nH]1` (configuration not stated) was tested. Which TGI did it give?
Answer: > 100 µM

Question: `COc1cc2c(cc1OC)C13CC[N+]4(C)CC5=CCOC6CC(=O)N2C1C6C5CC34[O-]` (configuration not stated) was tested. Which TGI did it give?
Answer: > 100 µM

Question: For `COC(=O)C(CC(C)C)NC(=O)C(N)Cc1ccc(OCc2ccccc2)cc1` (configuration not stated) (H-Tyr(Bn)-Leu-OMe; configuration not given here), which TGI is on record?
Answer: > 10 µM
